Laboratory results reported in EP0294746A1, “Bicyclic nitro compounds” (L. GIVAUDAN & CIE Société Anonyme, priority 1987, dated 1988).

Experiments:
[1] = Odour threshold and odour value determination; conditions: definition per Huber, Seifen-Oele-Fette-Wachse 110 (1984) 448-451
Protocol: Die Verbindungen der Formel I eignen sich aufgrund ihrer natürlichen Geruchsnoten insbesondere zur Modifizierung von bekannten Kompositionen. Hervorgehoben werden soll insbesondere ihre ausserordentliche Geruchsstärke: Der Geruchsschwellenwert beträgt 0,29 bzw. 0,57 ng/l, der Geruchswert 2983 bzw. 2139. Bezüglich Definition von Geruchswert und Geruchsschwellenwert siehe z.B. Ulrich A. Huber, Seifen - -Oele - Fette - Wachse 110, Nr. 15 (1984) 448-451.

[2] = Odour description (olfactory evaluation); conditions: odour note in words

SMILES | Geruchsschwellenwert [1] | Geruch [2]
CCc1cc2c(cc1[N+](=O)[O-])C(C)(C)C(C)C2(C)C (stereo not shown) [Beispiel 2, 5-Nitro-6-äthyl-1,1,2,3,3-pentamethylindan] | 0,29 ng/l | moschus-artig
CCc1cc2c(cc1[N+](=O)[O-])C(C)(C)CCC2(C)C [Beispiel 1, 6-Nitro-7-äthyl-1,1,4,4-tetramethyl-1,2,3,4-tetrahydronaphthalin] | 0,57 ng/l | Moschus-artig, süss, pudrig
